In patent US20250025451A1, “TREATMENT OF CANCER WITH KDM4 INHIBITORS” (Celgene Corporation, priority 2021, published 2025):

Columns and labels:
[1] = system: HT-29; experiment: cell-proliferation assay (BrdU, CTG), HT-29; assay type: cell-based; conditions: HT-29, human colorectal adenocarcinoma, mean
Experimental: Compound 1 was evaluated in in vitro cell-proliferation assays (BrdU assay, MTS assay, or Cell Titer Glo (CTG) assay) in multiple cancer cell lines and patient-derived organoid models to determine half-maximal inhibitory concentrations (IC50s).
Viability and BrdU thymidine incorporation assays were performed in multiwell plates seeded with cells in growth medium. After seeding, multiwell plates were cultured for 24 hours in a humidified incubator at 37° C. to promote adherence. […] The cultures were incubated for 168 hours after which the number of viable cells or the amount of thymidine incorporation in each test well was assessed by the methods as indicated above. Readouts were performed using an EnVision® Multilabel Reader (PerkinElmer, Waltham, MA) and the results were expressed as a percent of the negative control. Percent of Control values were plotted against the corresponding Compound 1 concentration and the relative IC50 value was determined from a non-linear regression curve as the concentration where inhibition was half-maximal. For cell lines where the number of IC50 determinations exceeded one, the IC50 was expressed as the mean IC50±SD.
Half-maximal inhibitory concentration (IC50) values for Compound 1 inhibition of cell proliferation were determined for nine cancer cell lines and one normal human fibroblastcell line.

[2] = system: T002C patient-derived colon cancer organoid model; experiment: organoid colony formation assay, T002C; assay type: cell-based, human
Experimental: (§1) The IC50 values for Compound 1 inhibition of colony formation and viability were determined for the patient-derived colon cancer organoid models: SU60, T002C, SU62, SU34, SU103, T03SC, and SU106, patient-derived pancreatic cancer organoid models PA016SF, PA0143F, T016P, and T028P, and a patient-derived breast cancer organoid model FS5S3.
(§2) Colony formation and viability assays were performed in multiwell plates seeded with organoids using an in vitro culture system composed of a Matrigel layer, media containing a defined set of growth factors, and co-culture with Wnt3 A-secreting mouse embryonic fibroblasts. Assays were initiated by adding either DMSO as a negative control, or an inhibitor panobinostatat 100×IC50 concentration as a positive control, or serially diluted Compound 1. The cultures were incubated for 168 or 144 hours after which the number of viable organoids in each test well was assessed respectively using one of two detection methods: CTG or staining with calcein-AM followed by imaging and colony counting. Colony count or viability of cells treated with compound 1 was expressed as a percent of the negative control. Aggregated Percent of Control values were plotted against the corresponding Compound 1 concentration and the absolute IC50 value was determined from a non-linear regression curve as the concentration where inhibition was 50% of the control.

[3] = system: SU106 patient-derived colon cancer organoid model; experiment: organoid colony formation assay, SU106; assay type: cell-based, human
Experimental: as §1, §2

[4] = system: SU60 patient-derived colorectal cancer xenograft; experiment: in vivo efficacy, SU60 patient-derived colorectal cancer xenograft model; conditions: SU60 CRC PDX; for % TGI: Day 19; for Median Tumor Volumes Diff.: Day 19 minus Day 1
Experimental: The therapeutic in vivo efficacy of Compound 1 was evaluated in SU60 colorectal cancer, KYSE-150 esophageal cancer, COH70 triple-negative breast cancer, GXA-3036 gastric adenocarcinoma and OCI-LY19 Diffuse Large B-Cell Non-Hodgkin's Lymphoma xenograft models. In all studies, efficacy was determined based on percent tumor growth inhibition (TGI), differences in mean tumor growth, and statistical assessment of differences in net tumor volume distributions on the day of TGI analysis between control and treated animals. Tolerability was assessed based on differences in mean body weights between control and treated animals over the course of the study.
The in vivo therapeutic efficacy and tolerability of Compound 1, administered orally as the free acid form in a vehicle comprised of 50% polyethylene glycol 400 (PEG 400) and 50% PBS (pH 9), was evaluated in the SU60 CRC PDX model established in female non-obese diabetic/severe combined immunodeficiency (NOD/SCID) gamma (NSG) mice. Each mouse was inoculated subcutaneously in the abdomen with 2×10^6 SU60 tumor cells (0.1 ml) suspended in Matrigel. When the average tumor size reached ˜270 mm3, test animals were randomized into 6 groups consisting of 8 mice per group and treatments were initiated. Control mice received 50% PEG 400 and 50% PBS (pH 9) vehicle PO QD×7. Treated mice received Compound 1 in vehicle PO at 20 or 10 mg/kg QD×7, at 20 mg/kg QOD, at 23 mg/kg 3 on/4 off, or at 14 mg/kg at 5 on/2 off. TGI was determined on Day 19 as (1−Diff treated/Diff control)×100. The difference in mean net tumor volumes on the day of TGI analysis for treated versus control animals was evaluated statistically using one-way analysis of variance (ANOVA) followed by Dunnett's multiple comparisons test. Adjusted p-values are shown where a calculated probability (p)≤0.05 was considered statistically significant. Individual tumors were measured twice weekly in two dimensions using a caliper, and the tumor volumes (TV) in mm3 were calculated using the formula: TV=0.5 (l×w×h), where l, w, and h are the tumor length, width, and height in mm, respectively; Mean tumor volumes±standard error of the mean (SEM) were calculated and plotted versus days of dosing (FIG. 10 left panel). Body weights were measured twice weekly. Body weights±SEM were calculated and plotted versus days of dosing (FIG. 10 right panel).

[5] = system: tumorigenic CD44^High;EpCAM^+ cells of SU60 xenograft tumors; experiment: flow cytometry analysis of tumorigenic cell population after treatment of SU60 xenograft tumors; assay type: in vivo; conditions: NSG female mice, 40 mg/kg PO QD x21
Experimental: The ability of Compound 1 to affect tumorigenic potential was analyzed by flow cytometry analysis of the tumorigenic cell population and functional in vivo tumorigenicity assay (limiting dilution assay).
To assess the effect of Compound 1 on tumorigenic cell population, Compound 1 was used to treat SU60 xenograft tumors. NSG female mice engrafted with SU60 cells (7 mice each group) were administered Compound 1 at 40 mg/kg PO QD×21. The day after the last dose, three tumors nearest to the mean size from each group were dissociated and the single cells were used to perform: 1) flow cytometry analysis of the tumorigenic cell population and 2) functional in vivo tumorigenicity assay (limiting dilution assay). Flow Cytometry Analysis of Tumorigenic Cell Population after Compound 1 Treatment
The proportion of tumorigenic CD44^High;EpCAM^+ cells in the cell population was quantified by flow cytometry. […] Flow cytometry analysis performed on single cell isolated from 3 vehicle-treated and 3 Compound 1-treated tumors. P-value was determined with unpaired Student T-test.

[6] = system: KDM4; experiment: biochemical activities (KDM4 inhibition); conditions: KDM4 isoforms, FIG. 1
[7] = 14 mg/kg (70 weekly) PO 5 on/2 off
[8] = 23 mg/kg (69 weekly) PO 3 on/4 off

## CC(C)c1ccc(N(C)c2ccc3c(c2)OCC[C@H]3CNc2cnccc2C(=O)O)cc1 [Compound 1, 3-({[(4R)-7-{methyl[4-(propan-2-yl)phenyl]amino}-3,4-dihydro-2H-1-benzopyran-4-yl]methyl}amino)pyridine-4-carboxylic acid]
[1]; 168 hours
  IC50: 23.5 nM
[1]; Homo sapiens, HT-29, 168 h
  IC50: < 40 nM
[2]; Homo sapiens, T002C colorectal carcinoma model
  IC50: < 150 nM
[2]; T002C human colorectal carcinoma organoid, 144 hrs, Colony Counts
  IC50: 22 nM
[3]; Homo sapiens, SU106 colorectal carcinoma model
  IC50: > 10000 nM
[3]; SU106 human colorectal carcinoma organoid, 144 hrs, Colony Counts
  IC50: > 10000 nM
[4]; female NSG mice, all regimens, over the course of the study
  tolerability (mean body weight changes): well-tolerated
[4]; female NSG mice, free acid 10 mg/kg (70 weekly) PO QD x7
  Median Tumor Volumes Day 19: 1151 mm^3
[4]; female NSG mice, free acid 14 mg/kg (70 weekly) PO 5 on/2 off
  Median Tumor Volumes Day 19: 1300 mm^3
[4]; female NSG mice, free acid 20 mg/kg (70 weekly) PO QOD
  Median Tumor Volumes Day 19: 1527 mm^3
[4]; female NSG mice, free acid 20 mg/kg (140 weekly) PO QD x7
  Median Tumor Volumes Day 19: 767 mm^3
[4]; female NSG mice, free acid 23 mg/kg (69 weekly) PO 3 on/4 off
  Median Tumor Volumes Day 19: 1121 mm^3
[4]; 10 mg/kg (70 weekly) PO QD x7
  % TGI: 48%
  Median Tumor Volumes Diff.: 901 mm^3
[4]; [7]
  % TGI: 42%
  Median Tumor Volumes Diff.: 1019 mm^3
[4]; 20 mg/kg (70 weekly) PO QOD
  % TGI: 29%
  Median Tumor Volumes Diff.: 1242 mm^3
[4]; 20 mg/kg (140 weekly) PO QD x7
  % TGI: 71%
  Median Tumor Volumes Diff.: 506 mm^3
[4]; [8]
  % TGI: 52%
  Median Tumor Volumes Diff.: 833 mm^3
[5]
  reduction of the proportion of tumorigenic cells (CD44^High;EpCAM^+) compared to vehicle control: 2.5 fold
[6]
  biochemical activities: potent PAN KDM4 inhibitor
